Experimental data: US9376449B2, “Indole carboxamide derivative” (Astellas Pharma Inc., priority 2012, dated 2016)
Read-outs that look alike come from different tables or passages of the source.

Columns and labels:
[1] = target: human MT1 receptor (Homo sapiens, UniProt P48039); assay: Activation of human MT1 receptor in receptor-expressing HEK293 cells (intracellular Ca2+, FLIPR); assay type: cell-based; conditions: for EC50: HEK293 cells stably expressing human MT1 and Gq/i chimeric G-protein, intracellular Ca2+ by FLIPR
Chain of human MT1 receptor (P48039 whole entry): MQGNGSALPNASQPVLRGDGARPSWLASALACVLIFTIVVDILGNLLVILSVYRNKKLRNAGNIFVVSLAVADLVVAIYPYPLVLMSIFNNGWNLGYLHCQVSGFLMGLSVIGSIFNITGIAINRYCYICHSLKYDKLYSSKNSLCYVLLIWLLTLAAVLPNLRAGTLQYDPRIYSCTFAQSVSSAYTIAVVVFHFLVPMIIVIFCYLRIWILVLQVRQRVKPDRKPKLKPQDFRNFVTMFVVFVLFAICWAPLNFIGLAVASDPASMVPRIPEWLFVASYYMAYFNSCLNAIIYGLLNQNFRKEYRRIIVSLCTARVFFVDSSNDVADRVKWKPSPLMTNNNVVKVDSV
Description: (§1) (1) Isolation of Human MT1 and MT2 Receptor and Construction of Expression Vector
(§2) A human MT1 receptor gene (GenBank Accession No.: NM_005958.3) and a human MT2 receptor gene (GenBank Accession No.: NM_005959.3) were each introduced into an expression vector pCDNA3.1/Zeo (Invitrogen, Inc.).
(§3) (2) Construction of Cells Stably Expressing Human MT1 and Human MT2 Receptor
(§4) The introduction was carried out according to the attached instructions, using a Lipofectoamine (registered trademark) 2000 Reagent (Invitrogen, Inc.). Zeocin and hygromycin were used as a resistant drug, and the cell was incubated for 15 days at 0.02 mg/mL and 0.05 mg/mL, respectively, thereby acquiring drug-resistant clones.
(§5) (3) Measurement of Intracellular Ca^2+ Concentration by FLIPR (Registered Trademark)
(§6) The respective stably expressing cells were dispensed into 96-well poly-D-lysine-coated plates (Falcon Co.) to 40,000 cells/well the day before the experiment, and incubated overnight in a DMEM (Invitrogen, Inc.) medium including 10% FBS at 37° C. and 5% CO2. The medium was replaced with a loading buffer (washing solution (Hank's balanced salt solution (HBSS), 20 mM HEPES-NaOH, 2.5 mM probenecid) including Fluo-4AM (Dojindo Co.) at 4 μM), and incubated for 1 hour at 37° C. and 5% CO2. Thereafter, the cells were washed with a plate washer (ELx405, BIO-TEK Instrument, Inc.) set with the washing solution, and set in an intracellular Ca^2+ concentration measuring systems (FLIPR (registered trademark), Molecular Device Co.). The test compound was dissolved in the washing solution in advance, diluted to a final concentration of −12 to −5 log M, set in a FLIPR (registered trademark) device together with the cells, and added to the cells in the device. At this time, a change in the intracellular Ca^2+ concentrations was measured.
(§7) Ex represents Example No. of the test compound.

[2] = target: T1, human MT2 receptor (Homo sapiens, UniProt P49286); assay: Activation of human MT2 receptor in receptor-expressing HEK293 cells (intracellular Ca2+, FLIPR); assay type: cell-based; conditions: for Emax: HEK293, maximum reaction by ramelteon taken as 100%, solvent only 0%; for EC50: HEK293 cells stably expressing human MT2 and Gq/i chimeric G-protein, intracellular Ca2+ by FLIPR
T1 sequence (P49286 1-362): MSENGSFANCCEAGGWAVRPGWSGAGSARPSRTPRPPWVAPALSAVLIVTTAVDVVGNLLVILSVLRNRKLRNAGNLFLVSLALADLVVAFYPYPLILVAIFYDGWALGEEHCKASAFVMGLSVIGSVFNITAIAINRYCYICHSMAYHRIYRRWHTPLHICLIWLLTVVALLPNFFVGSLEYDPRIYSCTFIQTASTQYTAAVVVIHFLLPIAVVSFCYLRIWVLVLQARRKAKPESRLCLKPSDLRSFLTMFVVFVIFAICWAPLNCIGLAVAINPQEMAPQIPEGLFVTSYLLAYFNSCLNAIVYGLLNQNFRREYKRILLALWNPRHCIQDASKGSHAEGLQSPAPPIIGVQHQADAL
Description: as §1, §2, §3, §4, §5, §6, §7

[3] = test system: isolated urethra; assay: Isolated urethra contractile action; design: species or system rat; conditions: test compound at 1 μM; contractile response by 10 μM phenylephrine as 100%; SD female rat urethra; read-out: Isolated urethra contraction (%)
Description: Test Example 2 Isolated Urethra Contractile Action
(1) Evaluation Test on Urethra Contractile Action of Test Compound Using Isolated Urethra
The urethra was isolated from an SD female rat having a body weight of 100 to 500 g. The isolated urethra was incised longitudinally to give a rectangular strip specimen having a width of about 3 mm, which was suspended in the circular muscle direction in 10 mL of a tissue bath filled with a Krebs-Henseleit solution (pH 7.4). The Krebs-Henseleit solution was bubbled with 95% O2 and 5% CO2, and kept at 37° C. The resting tension was set to 0.5 g to record the isometric contraction. After the resting tension was stabilized, contraction was elicited by the addition of 10 μM phenylephrine. After washing and stabilizing, the test compound was added cumulatively to a final concentration of −12 to −5 log M to measure a contractile response. By taking the contractile response by 10 μM phenylephrine as 100%, the ratio of the contractile response in the concentration of the test compound at 1 μM was calculated.
as §7

[4] = test system: urethral pressure; assay: Effect of test compound on urethral pressure in anesthetized rats; assay type: in vivo, rat; conditions: urethane-anesthetized SD female rats
Description: Test Example 3 Test to Evaluate Effect of Test Compound on Urethral Pressure
It has been reported that an increase in the urethra pressure is useful for the treatment of urinary incontinence, particularly stress urinary incontinence (for example, Drugs, 64, 14, 1503-1516 (2004)). In order to confirm whether the compound of the present invention increases the urethra pressure and thus is useful for the treatment of urinary incontinence, particularly stress urinary incontinence, the following tests were carried out.
SD female rats were anesthetized with urethane and subjected to laparotomy. Then, the bladder apex was incised and a catheter was inserted from the bladder apex. Further, the catheter tip was ligated and fixed to be located in the proximal urethra portion. The catheter was connected to a pressure transducer and an infusion pump. Further, a catheter for administrating the compound was fitted into the femoral vein. Physiological saline was continuously infused into the urethra and the perfusion pressure in the urethra was measured. After the urethral pressure was stabilized, the test compound that had been dissolved in physiological saline, or physiological saline including 5% dimethylacetamide and 0.5% Cremophor was administered intravenously at 0.1 mg/kg, and a change in urethral pressures was measured.
Further, the results of administering an active metabolite of midodrine (ST-1059: purchased from CHEMIZON) (J. Urology, 118, 980-982 (1977)) which is an α1 adrenoceptor agonist and has an effect on stress urinary incontinence in rat doses (0.01 mg/kg) presumed to correspond to the clinical doses are referenced and shown in the Tables below. The increment value in the urethra pressures of ramelteon and the Example compounds of the present invention at the time of administration are shown in Table 4. Ex represents Example No. of the test compound.

[5] = CNS penetration: CSF to plasma unbound concentration ratio in rat; assay type: in vivo; conditions: CSF and plasma (unbound), iv, 15 minutes after intravenous administration, CCSF/Cplasma,u, read-out: Kp,uu,CSF,iv15min
Description: Test Example 4 Test for Evaluating CNS Penetration
(1) Measurement of Unbound Fraction (fp) in Rat Plasma
A test compound (100 μg/mL, 50% acetonitrile solution) at 1% (v/v) with respect to the amount of the plasma was added to rat plasma, and dispensed to a sample for a supernatant and a sample for the plasma. The sample for a supernatant was ultracentrifuged at 436,000×g and 37° C. for 140 minutes, and the sample for the plasma was incubated at 37° C. for 140 minutes.
After 140 minutes, the sample for a supernatant after the ultracentrifugation and the sample for the plasma were taken, and mixed with the blank plasma or the blank supernatant, respectively. Acetonitrile including an internal standard material was added to each of the samples, and after the centrifugation at 2150×g and 4° C. for 10 minutes the supernatant was injected into LC-MS/MS.
The unbound fraction in the plasma was calculated by the following equation.
(wherein fp: an unbound fraction in the plasma and D: a dilution rate of the plasma. fu,app=peak area ratio of supernatant sample/peak area ratio of the plasma sample, and peak area ratio=peak area of test compound/peak area of internal standard material).
(2) The CSF to Plasma Unbound Concentration Ratio in Rat
A 50% acetonitrile solution and an acetonitrile including internal standard material was added to the collected plasma or CSF. After centrifugation at 4° C. and 2150×g for 10 minutes, the supernatant was injected into LC-MS/MS, and the total concentration of the test compound in the plasma (Cplasma,t) and the concentration of the test compound in CSF (CCSF) were obtained. The unbound concentration in the plasma (Cplasma,u) of the test compound and the CSF-to plasma unbound concentration ratio (Kp,uu,CSF) of the test compound was calculated by the following equation.
as §7

[6] = test system: 3T3; assay: In vitro 3T3 NRU phototoxicity test; assay type: cell-based
Description: Test Example 6 Drug Pharmacokinetic Test, Safety Pharmacology Test, and Toxicity Test
Using some Example compounds of the present invention, a drug Pharmacokinetic test, a safety pharmacology test, and a toxicity test were carried out.
(iii) For the toxicity test, for example, an in vitro phototoxicity test was carried out. The evaluation of the in vitro phototoxicity test was carried out in accordance with Guidance for industry photosafety testing, Center for Drug Evaluation and Research Food and Drug Administration, 2003, which is a guideline of FDA (U.S. Food and Drug Administration), and Note for guidance on photosafety testing (CPMP/SWP/398/01, 2002) which is a guideline of EMA (European Medicines Agency), and the method described in OECD guideline for testing of chemicals 432: In vitro 3T3 NRU phototoxicity test, 2004, which is a test method described in the report of OECD.

[7] = test system: isolated urethra; assay: Test confirming that urethra contractile action by ramelteon is through MT1 and/or MT2 receptor (Luzindole); design: species or system rat; conditions: for Second contractile rate by ramelteon (%): 20 minutes before ramelteon 1 μM, first contraction as 100%
Description: (2) Test for Confirming that Urethra Contractile Action is Action Through MT1 and/or MT2 Receptor
The urethra was isolated from an SD female rat having a body weight of 100 to 500 g. The isolated urethra was incised longitudinally to give a rectangular strip specimen having a width of about 3 mm, which was suspended in the muscle parallel to the circular to 10 mL of a tissue bath filled with a Krebs-Henseleit solution (pH 7.4). […] The resting tension was set to 0.5 g to record the isometric contraction. After the resting tension was stabilized, contraction was elicited by the addition of 10 μM phenylephrine. After washing and stabilizing, the test compound (ramelteon) at 1 μM was added to measure a contractile response. After washing and stabilizing, a solvent or Luzindole (purchased from Wako Pure Chemical Industries, Ltd.) (0.1 μM, 1 μM, or 10 μM) was added to the same specimen, and after 20 minutes, ramelteon at 1 μM was added again thereto to measure a contractile reaction. When the first contraction by ramelteon at 1 μM was taken as 100%, the second contractile rate by ramelteon was measured.

[8] = HEK293, maximum reaction by ramelteon taken as 100%, solvent only 0%, read-out: MT1 Emax (%)

SMILES | Emax [1, 8] [%] | EC50 [1] [nM] | Emax [2] [%] | EC50 [2] [nM] | activation at 1 µM [3] [%] | Increment value in the urethra pressures (mmHg) ([4]; 0.1 mg/kg intravenously) | also measured
CCCC(=O)NCCc1c(C(=O)NC)[nH]c2cc(F)c(OC)cc12 [Ex 35] | 110 | 3.2 | 102 | 11 | 171 | 8.2 ± 1.6 | 
CNC(=O)c1[nH]c2cc(F)c(OC)cc2c1CCNC(=O)C(F)F [Ex 15] | 104 | 5.4 | 103 | 17 | 261 | 8.6 ± 0.9 | Kp uu at 0.25 h [5]: 0.07; phototoxicity action [6]: no phototoxicity action
CCCC(=O)NCCc1c(C(=O)NC)[nH]c2ccc(OC)cc12 [Ex 32] | 106 | 7.7 | 111 | 31 | 143 | 10.8 ± 2.9 | 
COc1ccc(OC)c(C(O)CN)c1 (stereo not drawn) [ST-1059, reference compound] |  |  |  |  |  |  | Increment value in the urethra pressures (mmHg) ([4]; 0.01 mg/kg (rat dose presumed to correspond to clinical dose)): 4.9 ± 1.1 mmHg
CNC(=O)c1[nH]c2c(F)cc(OC)cc2c1CCNC(=O)C(F)F [Ex 53] | 103 | 19 | 105 | 9.2 |  | 10.5 ± 0.6 | 
CNC(=O)NCCc1c(C(=O)NC)[nH]c2ccc(OC)cc12 [Ex 8, 5-methoxy-N-methyl-3-{2-[(methylcarbamoyl)amino]ethyl}-1H-indole-2-carboxamide] | 124 | 12 | 119 | 19 |  | 6.0 ± 0.4 | Kp uu at 0.25 h [5]: 0.03; phototoxicity action [6]: no phototoxicity action
CC(=O)NCCc1c(Cc2ccccc2)[nH]c2ccccc12 [Luzindole] |  |  |  |  |  |  | Second contractile rate by ramelteon (%) ([7]; Luzindole 0.1 μM): 88 ± 11%; Second contractile rate by ramelteon (%) ([7]; Luzindole 1 μM): 75 ± 5%; Second contractile rate by ramelteon (%) ([7]; Luzindole 10 μM): 61 ± 9%; inhibition of isolated urethra contractile action by ramelteon ([7]; treatment with Luzindole 0.1-10 μM, in words): inhibited in a concentration-dependent manner
CNC(=O)c1[nH]c2ccc(OC)nc2c1CCNC(=O)C(F)F [Ex 48] | 122 | 12 | 109 | 43 |  | 7.3 ± 0.7 | 
CCC(=O)NCCc1c(C(=O)NC)[nH]c2cc(F)c(OC)cc12 [Ex 36] | 121 | 10 | 104 | 18 | 107 | 7.3 ± 0.2 | 
COc1ccc2[nH]cc(CCNC(C)=O)c2c1 [Melatonin, melatonin, reference compound] |  |  |  |  |  |  | Emax ([1]; HEK293, read-out: MT1 Emax (%)): 94%
CCCC(=O)NCCc1c(C(=O)NC)[nH]c2cc(Cl)c(OC)cc12 [Ex 34, 3-[2-(butyrylamino)ethyl]-6-chloro-5-methoxy-N-methyl-1H-indole-2-carboxamide] | 75 | 32 | 92 | 4.4 |  |  | 
CNC(=O)c1[nH]c2cc(Cl)c(OC)cc2c1CCNC(C)=O [Ex 12, 3-(2-acetamidoethyl)-6-chloro-5-methoxy-N-methyl-1H-indole-2-carboxamide] | 68 | 86 | 70 | 12 |  |  | 
